The structures appear in SMILES notation.

What all share (format): cell-based
In data set [1] the target is T1, RARα (Homo sapiens, UniProt P10276).
T1 sequence (P10276 1-462): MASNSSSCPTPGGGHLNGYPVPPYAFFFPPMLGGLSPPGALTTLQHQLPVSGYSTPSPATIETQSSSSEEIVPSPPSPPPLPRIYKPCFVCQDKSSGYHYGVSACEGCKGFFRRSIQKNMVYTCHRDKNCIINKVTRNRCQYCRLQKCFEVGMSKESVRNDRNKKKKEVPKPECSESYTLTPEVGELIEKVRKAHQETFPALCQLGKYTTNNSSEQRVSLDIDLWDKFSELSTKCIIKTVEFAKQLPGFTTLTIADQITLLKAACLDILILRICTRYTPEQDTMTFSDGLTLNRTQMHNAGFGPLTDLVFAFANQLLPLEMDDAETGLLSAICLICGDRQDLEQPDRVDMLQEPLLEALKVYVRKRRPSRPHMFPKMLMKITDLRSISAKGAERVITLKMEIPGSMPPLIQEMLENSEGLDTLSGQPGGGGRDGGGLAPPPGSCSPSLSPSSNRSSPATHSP
Kind of data set: BRET assay of agonist-dependent coactivator recruitment in transfected HEK293 cells. The note with it: 1 μM, 2 hours treatment. The method, then:
Hybrid 3 was prepared by treatment of the methyl ester of TTNN with excess hydroxylamine under alkaline conditions. The effects of hybrid 3 on RAR were initially assessed using a bioluminescence resonance energy transfer (BRET) assay. The BRET assay monitors agonist-dependent recruitment of coactivators to RARs in transfected HEK293 cells, chosen because of their high degree of transfectability. Energy transfer between luciferase (fused to RARα) and eGFP (fused to the LXXLL coactivator motif) occurs only when these moieties are juxtaposed by the RAR-LXXLL interaction, and can be detected by the emission of green fluorescence.
Cell transfection and BRET assays: HEK293 cells were grown to confluence, trypsinized and plated at a density of 500 k cells per well (12-well plates) in DMEM supplemented with 10% charcoal treated FBS (FBS-T). The following day, cells were transfected with PEI using 0.1 μg of RAR-RLuc vector and 1 μg of LXXLL-eGFP vector. 48 hours post-transfection, cells were treated with retinoids for 2 hours before taking BRET measurements as described previously.
On the technique in general: BRET reads energy transfer from a luciferase to a nearby fluorophore.

Data set [2] has as its system RAR target genes in MCF-7 cell line. Kind of data set: RT-qPCR analysis of RAR target genes. The source says: (§1) The agonist activity of 3 through its effects on RAR target genes was subsequently analyzed (FIG. 3).
On the technique in general: Quantitative PCR measures a nucleic acid by following its amplification.

The subject of data set [3] is MDA-MB-231. Kind of data set: Cell growth measurement. The note with it: 10 days of treatment. The protocol: (§2) Finally, the effects of 3 on the growth of several breast cancer cell lines [MCF-7 (ER-positive, HER2-negative, RA-sensitive); SkBr3 (ER-negative, HER2-amplified, RA-sensitive); and the normally RA-insensitive MDA-MB-231 (ER-negative, HER2-negative, RA-insensitive)] was assessed.
(§3) Cell Growth Measurement: Cells were plated at 40 k cells per well (6-well plate) in DMEM 5% FBS-T for all cell lines except for I-IMEC cells which were plated in supplemented MEBM from Clonetics. Cells were treated every 48 hours and media was refreshed every 96 hours. After 10 days of treatment cells were harvested in 0.1N NaOH and growth was quantified by analyzing protein content of lysates with a Lowry assay.

For data set [4], the system named is MCF-7. Description: Cell growth measurement. The note with it: 10 days of treatment. The protocol:
as §2, §3

For data set [5], the system named is SkBr3. Kind of data set: Cell growth measurement. The note with it: 10 days of treatment. The method, then: as §2, §3
The subject of data set [6] is RAR target genes in MDA-MB-231 cell line. Description: RT-qPCR analysis of RAR and HDACi target genes. The note with it: MDA-MB-231 cell line.
Excerpt: as §1

In data set [7] the test system is normal human mammary epithelial cells (HMEC). Description: Cell growth measurement.

Regarding `CC1(C)CCC(C)(C)c2cc(-c3ccc4cc(C(=O)O)ccc4c3)ccc21` [TTNN, 6-(5,6,7,8-tetrahydro-5,5,8,8-tetramethyl-2-naphthalenyl)-2-naphthalene carboxylic acid, reference compound], in data set [1], the “RARα agonism (BRET signal)” value was “agonists of RARα”. For the same compound, the figures for the “induction of RAR target genes (RT-qPCR)” value in data set [2] and in data set [6] were “no induction of either RARB1 or RARB2” and “only induce RARB2”, respectively. Moreover, the “effect on cell growth” value in data set [3] is “little to no effect”; in data set [4] it was “inactive”; in data set [5] it was “inactive”.
Turning to `CN1c2ccccc2N=C(c2ccc(C(=O)O)cc2)c2cc3c(cc21)C(C)(C)CCC3(C)C` [HX600], in data set [1], the “RARα agonism (BRET signal)” value is “no increase in BRET signal”.
Take `O=C(CCCCCCC(=O)Nc1ccccc1)NO` [SAHA, reference compound]: the “effect on growth of normal cells” value in data set [7] is on record as “strong inhibition”. Besides, the “effect on cell growth” value in data set [3] is recorded as “modest decrease in cell growth”; in data set [4] it was “shallow activity”; in data set [5] it was “shallow activity”.
For `CC1=C(/C=C/C(C)=C/C=C/C(C)=C/C(=O)O)C(C)(C)CCC1` [ATRA, all-trans-retinoic acid], the “RARα agonism (BRET signal)” value in data set [1] is given as “agonists of RARα”. The “induction of RAR target genes (RT-qPCR)” value is reported as “no induction of either RARB1 or RARB2” in data set [2] and “only induce RARB2” in data set [6]. Further, in data set [3], the “effect on cell growth” value is reported as “little to no effect”.
